According to BindingDB's records for doi:10.1016/j.bmcl.2008.03.027 (Scripps Florida, 2008):

The molecules below were run against Steroidogenic factor 1 (Homo sapiens, UniProt Q13285) (assay: Transactivation Cell-Based Assay).
Experimental: The assay was to monitor the SF-1 activation state via co-transfection of CHO-K1 cells with a plasmid encoding a Gal4-SF-1 chimerical transcription factor, pGal4DBD-SF-1-LBD, and a second plasmid driving luciferase expression under control of 5 multimerized Gal4 binding sites. The assay began by dispensing transfected cell suspension to each well (4,000 cells / well) of a white solid-bottom 1536-well plate. One hour after seeding, cells were treated with test compounds or DMSO alone (high control). The -NR cells (not co-transfected with nuclear receptor) were treated with DMSO (low control). After incubation, the luciferase assay was performed, and light emission was measured for 30 seconds with the ViewLux reader (PerkinElmer, Turku, Finland). Activity of each compound was calculated using the equation: Percent inhibition of compound=100 x (1-(test well-low control)/ (high control-low control)) EC50/IC50 is the concentration of test compound to exert 50% inhibition.

Chain of Steroidogenic factor 1 (Q13285 whole entry, the tested form may be a part): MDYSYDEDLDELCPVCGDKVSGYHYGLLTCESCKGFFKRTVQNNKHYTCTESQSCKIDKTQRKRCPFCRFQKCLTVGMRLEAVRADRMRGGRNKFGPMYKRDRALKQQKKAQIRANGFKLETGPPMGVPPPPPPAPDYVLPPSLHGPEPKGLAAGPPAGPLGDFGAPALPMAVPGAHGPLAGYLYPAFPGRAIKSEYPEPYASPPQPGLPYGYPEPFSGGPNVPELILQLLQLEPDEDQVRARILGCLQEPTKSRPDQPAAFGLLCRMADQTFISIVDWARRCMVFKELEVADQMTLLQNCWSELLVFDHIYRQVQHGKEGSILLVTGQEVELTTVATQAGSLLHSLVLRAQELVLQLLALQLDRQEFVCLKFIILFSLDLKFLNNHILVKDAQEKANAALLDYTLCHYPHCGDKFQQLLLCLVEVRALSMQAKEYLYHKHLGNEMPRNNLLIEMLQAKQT

| EC50 [nM] | SMILES |
| --- | --- |
| 760 | CCOC(=O)C(C)Oc1cccc2c(=O)n(CC(=O)Nc3ccc4c(c3)OCCO4)ccc12 (stereo unspecified) |
| 7860 | CCC(C)Oc1cccc2c(=O)n(CC(=O)Nc3ccc4c(c3)OCCO4)ccc12 (stereo unspecified) [2-[5-(butan-2-yloxy)-1-oxo-1,2-dihydroisoquinolin-2-yl]-N-(2,3-dihydro-1,4-benzodioxin-6-yl)acetamide] |
| 880 | CCCCC(C)Oc1cccc2c(=O)n(CC(=O)Nc3ccc4c(c3)OCCO4)ccc12 (stereo unspecified) [N-(2,3-dihydro-1,4-benzodioxin-6-yl)-2-[5-(hexan-2-yloxy)-1-oxo-1,2-dihydroisoquinolin-2-yl]acetamide] |
| 8460 | CCOC(=O)C(C)Oc1cccc2c(=O)n(CCC(=O)Nc3ccc4c(c3)OCCO4)ccc12 (stereo unspecified) [ethyl 2-({2-[2-(2,3-dihydro-1,4-benzodioxin-6-ylcarbamoyl)ethyl]-1-oxo-1,2-dihydroisoquinolin-5-yl}oxy)propanoate] |
| 590 | CCOC(=O)C(C)(C)Oc1cccc2c(=O)n(CC(=O)Nc3ccc4c(c3)OCCO4)ccc12 [ethyl 2-({2-[(2,3-dihydro-1,4-benzodioxin-6-ylcarbamoyl)methyl]-1-oxo-1,2-dihydroisoquinolin-5-yl}oxy)-2-methylpropanoate] |
| 1060 | CCOC(=O)C(C)Oc1cccc2c(=O)n(CC(=O)NCc3ccccc3)ccc12 (stereo unspecified) [ethyl 2-({2-[(benzylcarbamoyl)methyl]-1-oxo-1,2-dihydroisoquinolin-5-yl}oxy)propanoate] |
| 9710 | CCCCNC(=O)Cn1ccc2c(OC(C)C(=O)OCC)cccc2c1=O (stereo unspecified) [ethyl 2-({2-[(butylcarbamoyl)methyl]-1-oxo-1,2-dihydroisoquinolin-5-yl}oxy)propanoate] |
| 1770 | CCOC(=O)C(C)Oc1cccc2c(=O)n(CC(=O)NC3CCCCC3)ccc12 (stereo unspecified) [ethyl 2-({2-[(cyclohexylcarbamoyl)methyl]-1-oxo-1,2-dihydroisoquinolin-5-yl}oxy)propanoate] |
| 360 | CCOC(=O)C(C)Oc1cccc2c(=O)n(CC(=O)NCCc3ccccc3)ccc12 (stereo unspecified) [ethyl 2-[(1-oxo-2-{[(2-phenylethyl)carbamoyl]methyl}-1,2-dihydroisoquinolin-5-yl)oxy]propanoate] |
| 3570 | CCOC(=O)C(C)Oc1cccc2c(=O)n(CC(=O)N(C)c3ccc4c(c3)OCCO4)ccc12 (stereo unspecified) [ethyl 2-[(2-{[2,3-dihydro-1,4-benzodioxin-6-yl(methyl)carbamoyl]methyl}-1-oxo-1,2-dihydroisoquinolin-5-yl)oxy]propanoate] |
| 260 | CCOC(=O)C(C)Oc1cccc2c(=O)n(CC(=O)NCc3ccc4c(c3)OCO4)ccc12 (stereo unspecified) [ethyl 2-[(2-{[(2H-1,3-benzodioxol-5-ylmethyl)carbamoyl]methyl}-1-oxo-1,2-dihydroisoquinolin-5-yl)oxy]propanoate] |
| 360 | CCCCc1ccc(NC(=O)Cn2ccc3c(OC(C)C(=O)OCC)cccc3c2=O)cc1 (stereo unspecified) [ethyl 2-[(2-{[(4-butylphenyl)carbamoyl]methyl}-1-oxo-1,2-dihydroisoquinolin-5-yl)oxy]propanoate] |
| 190 | CCOC(=O)C(C)Oc1cccc2c(=O)n(CC(=O)Nc3ccc(OCC)cc3)ccc12 (stereo unspecified) [ethyl 2-[(2-{[(4-ethoxyphenyl)carbamoyl]methyl}-1-oxo-1,2-dihydroisoquinolin-5-yl)oxy]propanoate] |
| 110 | CCOC(=O)C(C)Oc1cccc2c(=O)n(CC(=O)Nc3ccc(CC)cc3)ccc12 (stereo unspecified) [ethyl 2-[(2-{[(4-ethylphenyl)carbamoyl]methyl}-1-oxo-1,2-dihydroisoquinolin-5-yl)oxy]propanoate] |
| 200 | CCOC(=O)C(C)Oc1cccc2c(=O)n(CC(=O)Nc3ccc(OC)cc3)ccc12 (stereo unspecified) [ethyl 2-[(2-{[(4-methoxyphenyl)carbamoyl]methyl}-1-oxo-1,2-dihydroisoquinolin-5-yl)oxy]propanoate] |
| 340 | CCOC(=O)C(C)Oc1cccc2c(=O)n(CC(=O)Nc3ccc(C)cc3)ccc12 (stereo unspecified) [ethyl 2-[(2-{[(4-methylphenyl)carbamoyl]methyl}-1-oxo-1,2-dihydroisoquinolin-5-yl)oxy]propanoate] |
| 530 | CCOC(=O)C(C)Oc1cccc2c(=O)n(CC(=O)Nc3ccc([N+](=O)[O-])cc3)ccc12 (stereo unspecified) [ethyl 2-[(2-{[(4-nitrophenyl)carbamoyl]methyl}-1-oxo-1,2-dihydroisoquinolin-5-yl)oxy]propanoate] |
| 4710 | CCOC(=O)C(C)Oc1cccc2c(=O)n(CC(=O)NCc3ccco3)ccc12 (stereo unspecified) [ethyl 2-[(2-{[(furan-2-ylmethyl)carbamoyl]methyl}-1-oxo-1,2-dihydroisoquinolin-5-yl)oxy]propanoate] |
| 200 | CCOC(=O)C(C)Oc1cccc2c(=O)n(CC(=O)Nc3ccc(OC(F)(F)F)cc3)ccc12 (stereo unspecified) [ethyl 2-{[1-oxo-2-({[4-(trifluoromethoxy)phenyl]carbamoyl}methyl)-1,2-dihydroisoquinolin-5-yl]oxy}propanoate] |
| 680 | CCOC(=O)C(C)Oc1cccc2c(=O)n(CC(=O)NCc3ccc(F)cc3)ccc12 (stereo unspecified) [ethyl 2-{[2-({[(4-fluorophenyl)methyl]carbamoyl}methyl)-1-oxo-1,2-dihydroisoquinolin-5-yl]oxy}propanoate] |

| SMILES | EC50 [nM] |
| --- | --- |
| CCCCOc1cccc2c(=O)n(CC(=O)Nc3ccc4c(c3)OCCO4)ccc12 [2-(5-butoxy-1-oxo-1,2-dihydroisoquinolin-2-yl)-N-(2,3-dihydro-1,4-benzodioxin-6-yl)acetamide] | 13700 |
